Measured values from patent US10300058B2, “Tyrosine kinase inhibitor and uses thereof” (Xuanzhu Pharma Co., Ltd., priority 2014, dated 2019).
Where two headings read alike, the source gives them in different places.

Tests used:
[1] = Pharmacokinetics in nude mouse; format: in vivo; conditions: female, BALB/c nude, plasma; for bioavailability: read-out: F (absolute bioavailability)
Method: Test animal: female nude mouse (BALB/c), weight: 20-25 g/mouse.
Solvent for intraveneous injection (iv): 5% DMSO+10% PEG400+85% (28% HP-β-CD)
Solvent for intragastric administration (po): 2% HPC+0.1% Tween 80
0.1283 mL and 0.1059 mL 1M hydrochloric acid solution were separately added to adjust pH to 4.
Compound 2, 27: Compound 27 (3.18 mg) and Compound 2 (3.17 mg) were weighed, respectively, and solvent for intraveneous injection was added to prepare a clear and transparent solution at a theoretical concentration of 1.0 mg/mL.
After homogeneous dispersion, a suspension at a theoretical concentration of 1.0 mg/mL was obtained.
Collection time point: 0.083 h, 0.25 h, 0.5 h, 1 h, 2 h, 4 h, 6 h, 8 h after administration.
60 μL whole blood was collected from intraocular canthus at each time point, and was centrifuged at 8000 r/min for 6 min in a low-temperature centrifuge to separate plasma; the plasma was stored in a refrigerator at −80° C.
The plasma sample of Compound 2 was analyzed by means of protein precipitation: 10 μL plasma was transferred to a 1.5 mL EP tube, 10 μL blank plasma was added, and the mixture was mixed homogeneously under vortexing. 200 μL internal standard (acetonitrile solution containing 25 ng/mL CNX-2006) was added; the resultant mixture was vortexted for 3 min, and then centrifuged at 12000 rpm for 5 min; 150 μL supernatant was accurately taken, to which 50 μL purified water was added. The resultant mixture was vortexed for 3 min and analyzed by LC-MS/MS.

[2] = tested on: H1975 human non-small cell lung cancer xenograft; assay: Pharmacodynamics in vivo, H1975 xenograft tumor-bearing nude mice; design: species or system BALB/c nude mouse; conditions: PO; for RTV (relative tumor volume) / TV (tumor volume) / Body weight After administration / Body weight Before administration: mean ± standard error
Text: Genus: Rodent, Line: BALB/c nude, age: 6-8 weeks, gender: female, body weight: 18-22 g. Provider of experimental animals: Beijing Ankaiyibo Biological Technology Co. Ltd., Production license No. SCXK(Jing) 2012-0009. Quality Certificate No. 11402400000256 […] The tumor cells in logarithmic growth phase were used in tumor inoculation in vivo. […] When the tumor grew into a volume of about 100 mm^3, the animals were grouped and administered, 8 mice per group. […] Test compound solutions were prepared immediately before administration every day. [table] Vernier caliper was used to measure the volume of tumor twice a week. The long diameter and short diameter of tumor were measured. The volume was calculated by the formula: volume=0.5×long diameter×short diameter^2. According to the measurement results, relative tumor volume (RTV) and relative tumor volume increasing rate (T/C) were calculated. RTV=Vt/V0, wherein Vt is the average value of tumor volume on day t after grouping and administration, V0 is the average value of tumor volume at the day when grouping. T/C=TRTV/CRTV×100%, wherein TRTV is the RTV in the treatment group, and CRTV is the RTV in the solvent control group. […] One-Way ANOVA test was carried out by SPSS17.0 statistic software. Tumor volume was analysed in statistics among groups. P<0.05 is indicative of significant difference.

EGFR (d746-750)-T790M = EGFR (d746-750)-T790M (Homo sapiens (Human), UniProt P00533, DEL746-750/T790M); assay: Mobility Shift Assay, in vitro enzyme-inhibiting activity, EGFR (d746-750)-T790M; format: biochemical; conditions: Table 8; Km ATP; read-out: IC50 EGFR (d746-750)-790M
Method: 1. Preparation of Reagents
2. Preparation of a Compound Solution
(1) To the second well of a 96-well plate, 5 μL 10 mM compound (dissolved in DMSO) was added, and 95 μL 100% DMSO was added to prepare 100 μL 0.5 mM compound.
(2) To other wells, 60 μL 100% DMSO was added. 20 μL compound from the second well was added to the third well, and 4-fold dilution was further performed to get 10 diluted concentrations.
(3) To the first well and the twelfth well of the 96-well plate, 100 μL 100% DMSO was separately added, and the two wells were used as control wells.
(4) 10 μL from each well of the 96-well plate was added to another 96-well plate, and 90 μL 1-fold kinase buffer was added.
(5) 5 μL from the 96-well plate was added to another 384-well plate, for example, transferred from A1 well of the 96-well plate to A1 and A2 wells of the 384-well plate, and transferred from A2 well of the 96-well plate to A3 and A4 wells of the 384-well plate, and so on.
To 384-well plate, 10 μL 2.5-fold enzyme solution was added, and incubated at room temperature for 10 min.
(5) Kinase reaction and stop
After incubation at 28° C. for a period of time (depending on kinase), 25 μL stop solution was added.
4. Data on percent conversion was read by Caliper.
(1) Data on enzyme activity was obtained by Caliper program;
(2) Inhibition rate of enzyme activity was calculated from the data on enzyme activity by the following formula: Inhibition rate(%)=(maximal value−the measured value of a test compound)/(maximal value-minimal value)×100,
wherein, the maximal value represents the measured value of DMSO control; and the minimal value represents the measured value of blank control.
(3) Calculation of IC50 value by XLFit excel.

[3] = Table 18, 10 mg/kg, QD × 18, 23 days after inoculation
[4] = Table 18, 30 mg/kg, QD × 18, 23 days after inoculation
[5] = po, 7.6 mg/kg, solid dispersed sample in pH 4.0 buffer
[6] = Table 17, 100 mg/kg, 19 days after inoculation

Chain of EGFR (d746-750)-T790M (P00533 other isoform, or with tags, fused parts or gaps T790M/del 1-668/del 746-750 limits assumed): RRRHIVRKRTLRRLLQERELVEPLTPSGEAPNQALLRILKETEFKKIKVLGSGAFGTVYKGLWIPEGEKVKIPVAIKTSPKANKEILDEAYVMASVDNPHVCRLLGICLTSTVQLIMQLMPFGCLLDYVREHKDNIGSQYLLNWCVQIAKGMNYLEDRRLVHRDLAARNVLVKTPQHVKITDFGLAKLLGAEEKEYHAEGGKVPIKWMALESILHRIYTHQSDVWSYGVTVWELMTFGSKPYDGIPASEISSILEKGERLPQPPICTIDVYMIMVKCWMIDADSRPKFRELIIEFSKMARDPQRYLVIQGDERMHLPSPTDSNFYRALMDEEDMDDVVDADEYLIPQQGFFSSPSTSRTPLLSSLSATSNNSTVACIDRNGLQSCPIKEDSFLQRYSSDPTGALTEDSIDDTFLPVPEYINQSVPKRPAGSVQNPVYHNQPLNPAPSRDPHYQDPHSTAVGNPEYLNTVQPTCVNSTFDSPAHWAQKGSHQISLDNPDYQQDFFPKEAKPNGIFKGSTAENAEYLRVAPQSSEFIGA

## C=CC(=O)Nc1cccc(Nc2nc(Nc3ccc(C4CCN(C(C)=O)CC4)cc3OC)ncc2C(F)(F)F)c1 [Compound 2, N-(3-((2-((4-(1-acetylpiperidin-4-yl)-2-methoxyphenyl)amino)-5-(trifluoromethyl)pyrimidin-4-yl)amino)phenyl)acrylamide]
[1]; iv, 5 mg/kg
  AUC(0-t): 6300 ng·h/mL
  clearance: 13.2 mL/min/kg
[1]; po, 10 mg/kg
  AUC(0-t): 5660 ng·h/mL
  bioavailability: 48%
[2]; Table 18, 10 mg/kg, QD × 18
  T/C (relative tumor volume increasing rate): 56.1%
  TGI (tumor growth-inhibiting rate): 43.9%
  Body weight After administration: 22.6 ± 0.3 g
  Body weight Before administration: 21.1 ± 0.4 g
[2]; [3]
  RTV (relative tumor volume): 630 ± 105%
  TV (tumor volume): 588 ± 81 mm^3
[2]; Table 18, 30 mg/kg, QD × 18
  T/C (relative tumor volume increasing rate): 45.7%
  TGI (tumor growth-inhibiting rate): 54.3%
  Body weight After administration: 22.6 ± 0.5 g
  Body weight Before administration: 21.6 ± 0.4 g
[2]; [4]
  RTV (relative tumor volume): 513 ± 54%
  TV (tumor volume): 489 ± 49 mm^3

## C=CC(=O)Nc1cccc(Nc2nc(Nc3ccc(C4CCN(S(C)(=O)=O)CC4)cc3OC)ncc2C(F)(F)F)c1 [Compound 27, N-(3-((2-((2-methoxy-4-(1-(methylsulfonyl)piperidin-4-yl)phenyl)amino)-5-(trifluoromethyl)pyrimidin-4-yl)amino)phenyl)acrylamide]
EGFR (d746-750)-T790M
  IC50: 3.6 nM
[1]; iv, 5 mg/kg
  AUC(0-t): 11600 ng·h/mL
  clearance: 7.17 mL/min/kg
[1]; [5]
  AUC(0-t): 9790 ng·h/mL
  bioavailability: 56%

## C=CC(=O)Nc1cccc(Nc2nc(Nc3ccc(N4CCC(N5CCOCC5)CC4)cc3OC)ncc2C(F)(F)F)c1 [Compound 28, N-(3-((2-((2-methoxy-4-(4-morpholinopiperidin-1-yl)phenyl)amino)-5-(trifluoromethyl)pyrimidin-4-yl)amino)phenyl)acrylamide]
EGFR (d746-750)-T790M
  IC50: 0.8 nM
[2]; Table 17, 100 mg/kg
  T/C (relative tumor volume increasing rate): 4.7%
  TGI (tumor growth-inhibiting rate): 95.3%
  Body weight After administration: 21.5 ± 0.3 g
  Body weight Before administration: 20.8 ± 0.4 g
[2]; [6]
  RTV (relative tumor volume): 46 ± 6%
  TV (tumor volume): 53 ± 7 mm^3
